pKi: −log10 of the molar value.
What was measured:
[1] = biological target: soluble human BACE-1 catalytic domain (Homo sapiens (Human), UniProt P56817); test: BACE-1 Ki Assay (BACE-1 HTRF FRET Assay); format: biochemical; conditions: Assay 1; Ki calculated from IC50 by Cheng-Prusoff
Experimental: Assay 1: BACE-1 Ki Assay (BACE-1 HTRF FRET Assay)
The compounds of the invention were determined to be potent inhibitors of BACE-1 using the following assay.
The following reagents were used in this assay. Na^+-Acetate pH 5.0; 1% Brij-35; Glycerol; Dimethyl Sulfoxide (DMSO); Recombinant human soluble BACE-1 catalytic domain (>95% pure); APP Swedish mutant peptide substrate (QSY7-APP^swe-Eu): QSY7-[…]-Europium-amide.
A homogeneous time-resolved FRET assay can be used to determine IC50 values for inhibitors of the soluble human BACE-1 catalytic domain. This assay monitors the increase of 620 nm fluorescence that resulted from BACE-1 cleavage of an APPswedish APP^swe mutant peptide FRET substrate (QSY7-[…]-Europium-amide). This substrate contains an N-terminal QSY7 moiety that serves as a quencher of the C-terminal Europium fluorophore (620 nm Em). In the absence of enzyme activity, 620 nm fluorescence is low in the assay and increased linearly over 3 hours in the presence of uninhibited BACE-1 enzyme. Inhibition of BACE-1 cleavage of the QSY7-APP^swe-Eu substrate by inhibitors is manifested as a suppression of 620 nm fluorescence.
Varying concentrations of inhibitors at 3× the final desired concentration in a volume of […] are preincubated with purified human BACE-1 catalytic domain (3 nM in 10 μl) for 30 minutes at 30° C. in reaction buffer containing 20 mM Na-Acetate pH 5.0, 10% glycerol, 0.1% Brij-35 and 7.5% DSMO. Reactions are initiated by addition of 10 μl of 600 nM QSY7-APP^swe-Eu substrate (200 nM final) to give a final reaction volume of 30 μl in a 384 well Nunc HTRF plate. The reactions are incubated at 30° C. for 1.5 hours. The 620 nm fluorescence is then read on a Rubystar HTRF plate reader (BMG Labtechnologies) using a […] delay followed by a 400 millisecond acquisition time window. Inhibitor IC50 values are derived from non-linear regression analysis of concentration response curves. Ki values are then calculated from IC50 values using the Cheng-Prusoff equation using a previously determined […] of 8 μM for the QSY7-APP^swe-Eu substrate at BACE-1. The example compounds of the invention were measured in this assay.

[2] = biological target: purified human autoBACE-2 (Homo sapiens (Human), UniProt Q9Y5Z0); test: BACE-2 Assay (BACE-HTRF assay); format: biochemical; conditions: Assay 2; Ki calculated from IC50 by Cheng-Prusoff; read-out: BACE2 Ki
Experimental: The compounds of the invention were determined to be potent inhibitors of BACE-2 using the following assay. Inhibitor IC50s at purified human autoBACE-2 are determined in a time-resolved endpoint proteolysis assay that measures hydrolysis of the QSY7-[…]-Eu-amide FRET peptide substrate (BACE-HTRF assay). BACE-mediated hydrolysis of this peptide results in an increase in relative fluorescence (RFU) at 620 nm after excitation with 320 nm light Inhibitor compounds, prepared at 3× the desired final concentration in 1×BACE assay buffer (20 mM sodium acetate pH 5.0, 10% glycerol, 0.1% Brij-35) supplemented with 7.5% DMSO are pre-incubated with an equal volume of autoBACE-2 enzyme diluted in 1×BACE assay buffer (final enzyme concentration 1 nM) in black 384-well NUNC plates for 30 minutes at 30° C. […] DMSO is present at […] final concentration in the assay. Following laser excitation of sample wells at 320 nm, the fluorescence signal at 620 nm is collected for 400 ms following a 50 μs delay on a RUBYstar HTRF plate reader (BMG Labtechnologies). Raw RFU data is normalized to maximum (1.0 nM BACE/DMSO) and minimum (no enzyme/DMSO) RFU values. IC50 values are determined by nonlinear regression analysis (sigmoidal dose response, variable slope) of percent inhibition data with minimum and maximum values set to 0 and 100 percent respectively. Similar IC50s are obtained when using raw RFU data. The Ki values are calculated from the IC50 using the Cheng-Prusoff equation.

BACE-1 = BACE-1 (Homo sapiens (Human), UniProt P56817); test: BACE-1 Cellular Assay (Aβ in HEK293-APPswe/lon cells); format: cell-based; conditions: 4 hours
Experimental: Assay 3: BACE-1 Cellular Assay
Certain compounds of the invention, identified in the tables herein, were determined to be potent inhibitors of BACE-1 in the following cellular assay. HEK293 cells are obtained from the American Type Culture Collection (ATCC) and stably transfected with the human amyloid precursor protein cDNA containing the FAD Swedish (enhances β-secretase processing) and London (enhances Aβ42 cleavage) mutations. A HEK293 stable clone with Aβ expression (HEK293-APP^swe/lon) is identified and maintained at 37° C., 5% CO2 in the ATCC-recommended growth media supplemented with hygromycin. […] Aβ40 or Aβ42 are measured in 15 μl of media using a mesoscale based ELISA assay. Full length Aβ40 and Aβ42 peptides are captured with the N-terminal specific biotinylated-WO2 monoclonal antibody and detected using either the ruthenylated Aβ40 C-terminal specific monoclonal antibody, G2-10 or the ruthenylated Aβ42 C-terminal specific monoclonal antibody G2-11 respectively. Raw electrochemiluminescnce values are measured using a Mesoscale Sector Imager plate reader and are plotted as a function of compound concentration. IC50 values are interpolated from the data using nonlinear regression analysis (Sigmoidal dose response fit with variable slope) of the data using GraphPad Prism software.

[3] = biological target: purified human Cathepsin-D (Homo sapiens (Human), UniProt P07339); test: Cathepsin-D Assay (time-resolved FRET); format: biochemical; conditions: Assay 4; Ki calculated from IC50 by Cheng-Prusoff;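 further: Europium-labelled peptide substrate with QSY7 quencher, cleavage read as 620 nm fluorescence after 30 min preincubation then 30 min reaction at 30 °C, pH 5.0, inhibition lowers signal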
purified human Cathepsin-D, sequence (P07339 65-412): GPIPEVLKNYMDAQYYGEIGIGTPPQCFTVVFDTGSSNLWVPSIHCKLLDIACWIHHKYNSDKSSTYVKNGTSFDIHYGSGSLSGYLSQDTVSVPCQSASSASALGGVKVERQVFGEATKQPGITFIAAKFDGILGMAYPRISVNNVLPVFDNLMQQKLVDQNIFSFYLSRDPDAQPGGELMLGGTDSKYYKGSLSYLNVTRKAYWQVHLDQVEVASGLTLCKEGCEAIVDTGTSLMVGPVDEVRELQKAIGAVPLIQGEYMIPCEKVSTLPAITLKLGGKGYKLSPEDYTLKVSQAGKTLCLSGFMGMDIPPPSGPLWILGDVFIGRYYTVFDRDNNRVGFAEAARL
Experimental: Assay 4: Cathepsin-D Assay
This substrate contains an C-terminal QSY7 moiety that serves as a quencher of the N-terminal Europium fluorophore (620 nm Em). In the absence of enzyme activity, 620 nm fluorescence is low in the assay and increased linearly over 1 hour in the presence of uninhibited Cathepsin-D enzyme. Inhibition of Cathespin D cleavage of the Eu-Aspartyl Protease-QSY7 substrate by inhibitors is manifested as a suppression of 620 nm fluorescence.
Varying concentrations of inhibitors in a volume of 100 nl are preincubated with purified human Cathepsin-D (0.1 nM in 10 μl) for 30 minutes at 30° C. in reaction buffer containing 100 mM Na-Acetate pH 5.0, and 0.02% Brij-35. Reactions are initiated by addition of 10 μl of 100 nM Eu-Aspartyl Protease-QSY7 substrate (50 nM final) to give a final reaction volume of 20 μl in a 384 well Nunc HTRF plate. The reactions are incubated at 30° C. for 30 minutes. The 620 nm fluorescence is then read on a Envision Multilabel plate reader (Perkin-Elmer) using a 200 microsecond delay followed by a 400 microsecond acquisition time window. Inhibitor IC50 values are derived from non-linear regression analysis of concentration response curves.

BACE-1, sequence (P56817 46-501): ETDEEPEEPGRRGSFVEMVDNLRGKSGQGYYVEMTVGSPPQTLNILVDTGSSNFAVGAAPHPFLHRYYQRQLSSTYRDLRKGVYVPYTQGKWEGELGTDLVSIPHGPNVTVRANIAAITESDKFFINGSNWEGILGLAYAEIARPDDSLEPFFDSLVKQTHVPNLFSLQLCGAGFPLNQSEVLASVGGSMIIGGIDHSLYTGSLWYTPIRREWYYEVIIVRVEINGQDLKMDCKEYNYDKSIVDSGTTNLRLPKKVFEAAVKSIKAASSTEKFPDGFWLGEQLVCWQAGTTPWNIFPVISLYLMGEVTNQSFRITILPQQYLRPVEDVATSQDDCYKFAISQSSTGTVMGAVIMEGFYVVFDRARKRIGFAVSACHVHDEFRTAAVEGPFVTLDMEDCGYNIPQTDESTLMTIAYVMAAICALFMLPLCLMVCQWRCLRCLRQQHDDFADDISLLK
purified human autoBACE-2, sequence (Q9Y5Z0 63-466): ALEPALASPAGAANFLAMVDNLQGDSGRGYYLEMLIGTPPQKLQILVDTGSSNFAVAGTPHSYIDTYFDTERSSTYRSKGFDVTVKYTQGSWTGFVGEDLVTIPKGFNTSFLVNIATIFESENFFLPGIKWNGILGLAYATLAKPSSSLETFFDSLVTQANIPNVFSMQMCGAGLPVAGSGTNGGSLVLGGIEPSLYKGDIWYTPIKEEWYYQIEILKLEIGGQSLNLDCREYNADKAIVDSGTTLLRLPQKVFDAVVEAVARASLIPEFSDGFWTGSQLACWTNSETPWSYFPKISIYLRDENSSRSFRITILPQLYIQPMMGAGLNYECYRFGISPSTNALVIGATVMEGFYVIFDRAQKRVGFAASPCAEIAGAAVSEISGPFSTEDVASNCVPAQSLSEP
soluble human BACE-1 catalytic domain, sequence (P56817 75-416): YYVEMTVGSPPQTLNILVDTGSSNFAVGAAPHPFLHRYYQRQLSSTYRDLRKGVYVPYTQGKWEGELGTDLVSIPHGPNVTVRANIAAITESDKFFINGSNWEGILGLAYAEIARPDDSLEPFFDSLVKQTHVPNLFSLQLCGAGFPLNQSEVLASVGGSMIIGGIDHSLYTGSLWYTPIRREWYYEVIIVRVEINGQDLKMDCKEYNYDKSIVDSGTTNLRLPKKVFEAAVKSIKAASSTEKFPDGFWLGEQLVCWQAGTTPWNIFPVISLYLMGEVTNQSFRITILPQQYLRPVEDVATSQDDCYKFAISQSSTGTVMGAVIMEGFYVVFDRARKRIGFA

C[C@@]1(c2nc(Nc3nccc4cc(C#N)cnc34)ccc2F)CS(=O)(=O)[C@@](CF)(C2CC2)C(N)=N1 [Example 2, 8-({6-[(3R,6S)-6-cyclopropyl-6-(fluoromethyl)-5-imino-3-methyl-1,1-dioxidothiomoipholin-3-yl]-5-fluoropyridin-2-yl}amino)-1,7-naphthyridine-3-carbonitrile]
pKi [1]: 7.82
pKi [2]: 8.16
IC50 (BACE-1): 52 nM
Ki [3]: 159 nM

C[C@@]1(c2cc(Nc3nccc4cc(Br)cnc34)ncc2F)CS(=O)(=O)[C@@](C)(C2CC2)C(N)=N1 [Example 3, 3-bromo-N-{4-[(3R,6S)-6-cyclopropyl-5-imino-3,6-dimethyl-1,1-dioxidothiomorpholin-3-yl]-5-fIuoropyridin-2-yl}-1,7-naphthyridin-8-amine]
pKi [1]: 8.82
pKi [2]: 9.46
IC50 (BACE-1): 25 nM
Ki [3]: 5530 nM

C[C@@]1(c2cc(Nc3nccc4cc(C#N)cnc34)ncc2F)CS(=O)(=O)[C@@](C)(C2CC2)C(N)=N1 [Example 4, 8-({4-[(3R,6S)-6-cyclopropyl-5-imino-3,6-dimethyl-1,1-dioxidothiomorpholin-3-yl]-5-fluoropyridin-2-yl}amino)-1,7-naphthyridine-3-carbonitrile]
pKi [1]: 8.42
pKi [2]: 8.82
IC50 (BACE-1): 19 nM
Ki [3]: 6650 nM

COc1cnc2c(Nc3ccc(F)c([C@]4(C)CS(=O)(=O)[C@@](CF)(C5CC5)C(N)=N4)c3)nccc2n1 [Example 8, N-{3-[(3R,6S)-6-cyclopropyl-6-(fluoromethyl)-5-imino-3-methyl-1,1-dioxidothiomoipholin-3-yl]-4-fluorophenyl}-2-methoxypyrido[3,4-b]pyrazin-5-amine]
pKi [1]: 8.35
pKi [2]: 8.38
IC50 (BACE-1): 91 nM
Ki [3]: 4010 nM

COc1cnc2c(Nc3cc([C@]4(C)CS(=O)(=O)[C@@](C)(C5CC5)C(N)=N4)c(F)cn3)nccc2n1 [Example 9, N-{4-[(3R,6S)-6-cyclopropyl-5-imino-3,6-dimethyl-1,1-dioxidothiomorpholin-3-yl]-5-fluoropyridin-2-yl}-2-methoxypyrido[3,4-b]pyrazin-5-amine]
pKi [1]: 7.87
pKi [2]: 8.89
IC50 (BACE-1): 111 nM
Ki [3]: > 9400 nM

COc1cnc2c(Nc3cc([C@]4(C)CS(=O)(=O)[C@@](C)(C5CC5)C(N)=N4)c(F)cn3)ccnc2c1 [Example 21, (2S,5R)-2-cyclopropyl-5-(5-fluoro-2-((7-methoxy-1,5-naphthyridin-4-yl)amino)pyridin-4-yl)-3-imino-2,5-dimethylthiomorpholine 1,1-dioxide]
pKi [1]: 8.28
pKi [2]: 8.72

COc1cnc2c(Nc3cc([C@]4(C)CS(=O)(=O)[C@@](C)(C5CC5)C(N)=N4)c(F)cn3)ncnc2n1 [Example 23, (2S,5R)-2-cyclopropyl-5-(5-fluoro-2-((7-methoxypteridin-4-yl)amino)pyridin-4-yl)-3-imino-2,5-dimethylthiomorpholine 1,1-dioxide]
pKi [1]: 6.57
pKi [2]: 6.89
Ki [3]: > 9400 nM

C[C@@]1(c2cc(Nc3nccc4cc(F)cnc34)ncc2F)CS(=O)(=O)[C@@](C)(C2CC2)C(N)=N1 [Example 26, (3R,6S)-5-amino-6-cyclopropyl-3-(5-fluoro-2-((3-fluoro-1,7-naphthyridin-8-yl)amino)pyridin-4-yl)-3,6-dimethyl-3,6-dihydro-2H-1,4-thiazine 1,1-dioxide]
IC50 (BACE-1): 250 nM

CC#CCOc1cnc2c(Nc3cc([C@]4(C)CS(=O)(=O)[C@@](C)(C5CC5)C(N)=N4)c(F)cn3)nccc2n1 [Example 28, (3R,6S)-5-amino-3-(2-((2-(but-2-yn-1-yloxy)pyrido[3,4-b]pyrazin-5-yl)amino)-5-fluoropyridin-4-yl)-6-cyclopropyl-3,6-dimethyl-3,6-dihydro-2H-1,4-thiazine 1,1-dioxide]
IC50 (BACE-1): 6.3 nM

CC#CCOc1cnc2c(Nc3cnc(F)c([C@]4(C)CS(=O)(=O)[C@@](C)(C5CC5)C(N)=N4)c3)nccc2n1 [Example 29, (3R,6S)-5-amino-3-(5-((2-(but-2-yn-1-yloxy)pyrido[3,4-b]pyrazin-5-yl)amino)-2-fluoropyridin-3-yl)-6-cyclopropyl-3,6-dimethyl-3,6-dihydro-2H-1,4-thiazine 1,1-dioxide]
IC50 (BACE-1): 30 nM

CC#CCOc1cnc2c(Nc3cnc(F)c([C@]4(C)CS(=O)(=O)[C@@](C)(C5CC5)C(N)=N4)c3)nccc2c1 [Example 30, (3R,6S)-5-amino-3-(5-((3-(but-2-yn-1-yloxy)-1,7-naphthyridin-8-yl)amino)-2-fluoropyridin-3-yl)-6-cyclopropyl-3,6-dimethyl-3,6-dihydro-2H-1,4-thiazine 1,1-dioxide]
IC50 (BACE-1): 28 nM

C[C@@]1(c2cc(Nc3ccnc4cccnc34)ncc2F)CS(=O)(=O)[C@@](C)(C2CC2)C(N)=N1 [Example 31, (3R,6S)-3-(2-((1,5-naphthyridin-4-yl)amino)-5-fluoropyridin-4-yl)-5-amino-6-cyclopropyl-3,6-dimethyl-3,6-dihydro-2H-1,4-thiazine 1,1-dioxide]
IC50 (BACE-1): 180 nM

C[C@@]1(c2cc(Nc3ccnc4cc(F)cnc34)ncc2F)CS(=O)(=O)[C@@](C)(C2CC2)C(N)=N1 [Example 34, (3R,6S)-5-amino-6-cyclopropyl-3-(5-fluoro-2-((7-fluoro-1,5-naphthyridin-4-yl)amino)pyridin-4-yl)-3,6-dimethyl-3,6-dihydro-2H-1,4-thiazine 1,1-dioxide]
IC50 (BACE-1): 32 nM

COc1cnc2c(Nc3ccc(F)c([C@]4(C)CS(=O)(=O)[C@@](C)(C5CC5)C(N)=N4)c3)ccnc2n1 [Example 37, (3R,6S)-5-amino-6-cyclopropyl-3-(2-fluoro-5-((3-methoxypyrido[2,3-b]pyrazin-8-yl)amino)phenyl)-3,6-dimethyl-3,6-dihydro-2H-1,4-thiazine 1,1-dioxide]
IC50 (BACE-1): 23 nM

C[C@@]1(c2cc(Nc3ncnc4cc(C#N)cnc34)ncc2F)CS(=O)(=O)[C@@](C)(C2CC2)C(N)=N1 [Example 39, 4-((4-((3R,6S)-5-amino-6-cyclopropyl-3,6-dimethyl-1,1-dioxido-3,6-dihydro-2H-1,4-thiazin-3-yl)-5-fluoropyridin-2-yl)amino)pyrido[3,2-d]pyrimidine-7-carbonitrile]
IC50 (BACE-1): 130 nM

CC1(C)C(=N)N[C@](C)(c2nc(Nc3cccc(Cl)c3F)ccc2F)CS1(=O)=O [WO′426 Ex. 30, reference compound]
pKi [1]: 5.50
pKi [2]: 6.06

COc1ccccc1Nc1ccc(F)c([C@]2(C)CS(=O)(=O)C(C)(C)C(=N)N2)n1 [WO′426 Ex. 30a, reference compound]
pKi [1]: 5.28
pKi [2]: 6.29
